Experimental data taken from patent US20210299111A1, “EIF4A INHIBITOR COMBINATIONS” (eFFECTOR Therapeutics Inc., priority 2020, published 2021).

Columns and labels:
[1] = system: MDA-MB-361 ER^+ breast cancer cells; assay: MDA-MB-361 xenograft tumor growth in athymic mice; format: in vivo; details: eFT226 0.1 mg/kg intravenously Q4D, palbociclib 30 mg/kg orally QD, 18 days, tumor volume followed up to 45 days after last dose, FIG. 3
Protocol: The in vivo effect of a combination treatment using eFT226 and palbociclib on the tumor growth of MDA-MB-361 ER^+ breast cancer cells was tested. Xenograft experiments were performed by implanting MDA-MB-361 ER^+ breast cancer cells into athymic mice. Athymic mice implanted with MDA-MB-361 tumor cells were randomized and size-matched into vehicle and treatment groups when the mean tumor size reached ˜300 mm^3. The mice were then treated with (1) control vehicle; (2) 0.1 mg/kg of eFT226 administered intravenously every 4 days (Q4D) for a period of 18 days; (3) 30 mg/kg of palbociclib administered orally every day (QD) for a period of 18 days; or (4) 0.1 mg/kg of eFT226 administered intravenously Q4D and 30 mg/kg of palbociclib administered orally QD for a period of 18 days. The effect on the above treatments on tumor volume was monitored. Tumor volume was measured periodically for up to 45 days after the last dose of treatment was administered. […] Administration of either eFT226 or palbociclib alone led to a inhibition of tumor growth for about 22 days after the treatment was stopped. […] It is unknown what factors determine the equilibrium between the CDK4/6 inhibitor-sensitive monomeric CDK4 and the drug resistant p27-CDK4-cyclin D1 trimer.

[2] = system: cyclin D1; assay: Expression of cyclin D1 in MDA-MB-361 ER+ breast cancer cells treated with eFT226; format: cell-based; details: MDA-MB-361 cells, 24 hours, FIG. 1
Protocol: (§1) The effect of eFT226 on key cell cycle regulators in MDA-MB-361 ER^+ breast cancer cells was tested. MDA-MB-361 ER^+ breast cancer cells were treated with varying concentrations of eFT226 (10 nM, 30 nM, and 100 nM) for 24 hours, and analyzed for the expression of the relevant key cell cycle regulators, cyclin D1, CDK4, and phosphorylated retinoblastoma (Rb) protein.

[3] = system: CORL23 (KRAS G12V) NSCLC cells; assay: Cell viability (crystal violet) in KRAS mutant CORL23 cells; format: cell-based; details: Palbociclib 100 nM, eFT226 10 or 50 nM, 24 hours, then Palbociclib alone for 13 days, FIG. 6
Protocol: (§2) SW620 (KRAS G12V) colorectal cancer cells (FIG. 1), DLD1 (KRAS G13D) colorectal cancer cells (FIG. 2), and CORL23 (KRAS G12V) NSCLC cells (FIG. 3) were seeded at 500-1,000 cells/well in 6-well plates and treated with DMSO control (“DMSO”), Palbociclib (100 nM) (“Palbo”), eFT226 (10 or 50 nM), or the combination of the two drugs (“Palbo+eFT226). After 24 hours of treatment, cells were rinsed and treatment with Palbociclib alone was continued for an additional 13 days. At the end of treatment, cells were rinsed with phosphate buffered saline (PBS) and stained with crystal violet.

[4] = system: MDA-MB-361 ER^+ breast cancer cells; assay: Cell viability of MDA-MB-361 cells, single agents and combination; format: cell-based; details: Palbociclib 40 nM, eFT226 45 nM, 24 hours, then Palbociclib only for 6 days, versus untreated control, FIG. 2
Protocol: MDA-MB-361 ER^+ breast cancer cells were seeded at 10,000 cells/well in 24-well plates and treated with DMSO (“control”), Palbociclib (40 nM)(“Palbo”), eFT226 (45 nM) (“eFT226”), or the combination of the two drugs (“Combo”). After 24 hours of treatment, cells were rinsed and treatment with Palbociclib only was continued for 6 days, at which time cell viability was determined. Cells were counted on day 0 and day 6, when the experiment was ended.

[5] = system: phosphorylated retinoblastoma (Rb) protein; assay: Phosphorylated Rb protein in MDA-MB-361 ER+ breast cancer cells treated with eFT226; format: cell-based; details: MDA-MB-361 cells; eFT226 10 nM, 30 nM, 100 nM; 24 hours; FIG. 1
Protocol: as §1

[6] = system: DLD1 (KRAS G13D) colorectal cancer cells; assay: Cell viability (crystal violet) in KRAS mutant DLD1 cells; format: cell-based; details: Palbociclib 100 nM, eFT226 10 or 50 nM, 24 hours, then Palbociclib alone for 13 days, FIG. 5
Protocol: as §2

[7] = system: SW620 (KRAS G12V) colorectal cancer cells; assay: Cell viability (crystal violet) in KRAS mutant SW620 cells; format: cell-based; details: Palbociclib 100 nM, eFT226 10 or 50 nM, 24 hours, then Palbociclib alone for 13 days, FIG. 4
Protocol: as §2

[8] = system: CDK4; assay: Expression of CDK4 in MDA-MB-361 ER+ breast cancer cells treated with eFT226; format: cell-based; details: MDA-MB-361 cells; eFT226 10 nM, 30 nM, 100 nM; 24 hours; FIG. 1
Protocol: as §1

Row | SMILES | duration of inhibition of tumor growth after the last dose [1] | decrease of Cyclin D1 protein levels compared with Fulvestrant [2] | cyclin D1 expression ([2]; eFT226 10 nM, 30 nM, 100 nM) | cell viability [3] | cell viability [4] | phosphorylated Rb protein [5] | cell viability [6] | cell viability [7] | CDK4 expression [8]
1 | CC(=O)c1c(C)c2cnc(Nc3ccc(N4CCNCC4)cn3)nc2n(C2CCCC2)c1=O [palbociclib, reference compound] | about 22 days |  |  |  |  |  |  |  | 
2 | COc1cc2c(c(OC)n1)[C@]1(O)[C@H](O)[C@H](CN(C)C)[C@@H](c3ccccc3)[C@]1(c1ccc(C#N)cc1)O2 [eFT226] | about 22 days | more effective than Fulvestrant (Fulv) in decreasing Cyclin D1 protein levels | suppression of cyclin D1 and CDK4 expression was observed in the cell line at all concentrations | reduced | reduced | concomitant decrease in phosphorylated Rb protein | reduced | reduced | suppression of cyclin D1 and CDK4 expression was observed in the cell line at all concentrations
